The values below are quoted from earlier work in patent publication EP3957303A1, “PHARMACEUTICAL COMBINATION PREPARATION COMPRISING EZETIMIBE AND LOSARTAN” (Hanmi Pharm. Co., Ltd., priority 2019, dated 2020).

Take `O=C1[C@H](CC[C@H](O)c2ccc(F)cc2)[C@@H](c2ccc(O)cc2)N1c1ccc(F)cc1` [Ezetimibe, 1-(4-fluorophenyl)-3(R)-[3-(4-fluorophenyl)-3(S)-hydroxypropyl]-4(S)-(4-hydroxyphenyl)-2-azetidinone]: where the note is “under acidic to weakly basic conditions such as body fluids”, the saturation solubility entry is on record as “about 1 ppm”. Besides, under “water”, the solubility in water result is given as “practically insoluble in water”.
